# Test: Intrinsic clearance in mouse liver microsomes at 0.5 uM after 30 mins in presence of NADPH by LC-MS/MS analysis
# Type: ADME, Microsome
# Settings: 0.5 h
row,Compound,CLH [mL/min/g]
1,CC1(c2ccc(C#N)cc2)NC(=O)N(CC(=O)c2ccc(F)cc2F)C1=O (stereo unspecified),3.52
2,CC1(c2ccc(OC(F)F)cc2)NC(=O)N(CC(=O)c2ccc(F)cc2F)C1=O (stereo unspecified),1.78
3,CC1(c2ccc(-n3cnnn3)cc2)NC(=O)N(CC(=O)c2ccc(F)cc2F)C1=O (stereo unspecified),2.44
4,CC1(c2ccc(Br)cc2)NC(=O)N(CC(=O)c2ccc(F)cc2F)C1=O (stereo unspecified),1.48

# Test: Intrinsic clearance in human liver microsomes at 0.5 uM after 30 mins in presence of NADPH by LC-MS/MS analysis
# Type: ADME, Microsome
# Settings: 0.5 h
row,Compound,CLH [mL/min/g]
1,CC1(c2ccc(C#N)cc2)NC(=O)N(CC(=O)c2ccc(F)cc2F)C1=O (stereo unspecified),0.49
2,CC1(c2ccc(OC(F)F)cc2)NC(=O)N(CC(=O)c2ccc(F)cc2F)C1=O (stereo unspecified),< 0.4
3,CC1(c2ccc(-n3cnnn3)cc2)NC(=O)N(CC(=O)c2ccc(F)cc2F)C1=O (stereo unspecified),< 0.4
4,CC1(c2ccc(Br)cc2)NC(=O)N(CC(=O)c2ccc(F)cc2F)C1=O (stereo unspecified),< 0.4

# Test: physchem
# Settings: buffer, pH 7.4, logD
row,Compound,chromatographic logD
1,CC1(c2ccc(OC(F)F)cc2)NC(=O)N(CC(=O)c2ccc3c(c2)OCO3)C1=O (stereo unspecified),4.9
2,COc1ccc(-c2cn(CC(=O)c3ccc(F)cc3F)cn2)cc1,4.68
3,CC1(c2ccc(OC(F)(F)F)cc2)NC(=O)N(CC(=O)c2ccc(F)cc2F)C1=O (stereo unspecified),6.05
4,CCOc1ccc(C2(C)NC(=O)N(CC(=O)c3ccc(F)cc3F)C2=O)cc1 (stereo unspecified),5.43
5,COc1ccc(C2(C)NC(=O)N(CC(=O)c3ccc(F)cc3F)C2=O)c(F)c1 (stereo unspecified),5.05
6,CC1(c2ccc(OC(F)F)cc2)NC(=O)N(CC(=O)c2ccc(Cl)s2)C1=O (stereo unspecified),5.49
7,CCC1(c2ccc(C#N)cc2)NC(=O)N(CC(=O)c2ccc(F)cc2F)C1=O (stereo unspecified),4.99
8,CC1(c2ccc(OC(F)F)cc2)NC(=O)N(CC(=O)c2cccs2)C1=O (stereo unspecified),4.59
9,COc1cc(C2(C)NC(=O)N(CC(=O)c3ccc(F)cc3F)C2=O)cc(OC)c1OC (stereo unspecified),4.47
10,COc1ccc(C2(C)NC(=O)N(CCC(=O)c3ccc(F)cc3)C2=O)cc1 (stereo unspecified),4.6
11,Cc1ccc(C(=O)CN2C(=O)NC(C)(c3ccc(OC(F)F)cc3)C2=O)s1 (stereo unspecified),5.06
12,CC1(c2ccc(N)cc2)NC(=O)N(CC(=O)c2ccc(F)cc2F)C1=O (stereo unspecified),3.38
13,CC1(c2ccc(Cl)cc2)NC(=O)N(CC(=O)c2ccc(F)cc2)C1=O (stereo unspecified),5.28
14,COc1ccc(C(=O)CN2C(=O)NC(C)(c3ccc(OC(F)F)cc3)C2=O)cc1F (stereo unspecified),5.03
15,CC1(c2ccc(C#N)cc2)NC(=O)N(CC(=O)C2CCCCC2)C1=O (stereo unspecified),5.07
16,CC1(c2ccc(OC(F)F)cc2)NC(=O)N(CC(=O)c2nccs2)C1=O (stereo unspecified),4.45
17,Cc1cc(C(=O)CN2C(=O)NC(C)(c3ccc(OC(F)F)cc3)C2=O)c(C)[nH]1 (stereo unspecified),4.12
18,CC1(c2ccc(OC(F)F)cc2)NC(=O)N(CC(=O)c2ccccc2)C1=O (stereo unspecified),4.97
19,CC1(c2ccc(OC(F)F)cc2)NC(=O)N(CC(=O)N2CCCC2)C1=O (stereo unspecified),3.37
20,CC1(c2ccc(C#N)cc2)NC(=O)N(CC2(c3ccc(F)cc3F)COC2)C1=O (stereo unspecified),4.21
21,CC1(c2ccc(Br)nc2)NC(=O)N(CC(=O)c2ccc(F)cc2F)C1=O (stereo unspecified),4.67
22,CC1(c2ccc(C(F)(F)F)cc2)NC(=O)N(CC(=O)c2ccc(F)cc2F)C1=O (stereo unspecified),6.01
23,COc1ccccc1C(=O)CN1C(=O)NC(C)(c2ccc(C#N)cc2)C1=O (stereo unspecified),4.45
24,CC1(c2ccc(OC(F)F)cc2)NC(=O)N(CC(=O)c2cccc(F)c2)C1=O (stereo unspecified),5.13

row,Compound,chromatographic logD
1,Cc1ccc(C)c(C(=O)CN2C(=O)NC(C)(c3ccc(OC(F)F)cc3)C2=O)c1 (stereo unspecified),5.97
2,CC1(c2ccc(OC(F)F)cc2)NC(=O)N(CC(=O)c2ccccn2)C1=O (stereo unspecified),4.35
3,CC1(c2ccc(OC(F)F)cc2)NC(=O)N(CC(=O)c2ccncc2)C1=O (stereo unspecified),3.52
4,COc1ccc(C2(C)NC(=O)N(CC(=O)c3ccc(F)cc3)C2=O)cc1 (stereo unspecified),4.53
5,CC1(c2ccc(C#N)cc2)NC(=O)N(CC(=O)c2ncc(F)cc2F)C1=O (stereo unspecified),3.89
6,CC1(c2ccc(Cl)cc2)NC(=O)N(CCC(=O)c2ccc(F)cc2)C1=O (stereo unspecified),5.35
7,CC1(c2ccc(-n3ccnc3)cc2)NC(=O)N(CC(=O)c2ccc(F)cc2F)C1=O (stereo unspecified),3.84
8,COc1ccc(C2(C)NC(=O)N(Cc3ccc(F)cc3)C2=O)cc1 (stereo unspecified),4.72
9,CC1(c2ccc(Br)cc2F)NC(=O)N(CC(=O)c2ccc(F)cc2F)C1=O (stereo unspecified),5.8
10,CC1(c2ccc(C#N)s2)NC(=O)N(CC(=O)c2ccc(F)cc2F)C1=O (stereo unspecified),4.67
11,CC1(c2ccc(Cl)cc2)NC(=O)N(CC(=O)c2ccc(F)cc2F)C1=O (stereo unspecified),5.54
12,CC1(c2ccc(C#N)cc2)NC(=O)N(CCc2ccc(F)cc2)C1=O (stereo unspecified),4.56
13,COc1ccc(C2(C)NC(=O)N(CC(O)c3ccc(F)cc3F)C2=O)cc1 (stereo unspecified),3.96
14,COc1ccc(C2(C)NC(=O)N(CCc3ccc(F)cc3)C2=O)cc1 (stereo unspecified),4.84
15,CC1(c2ccc(C#N)cc2)NC(=O)N(CC(=O)c2ccc(F)cc2F)C1=O (stereo unspecified),4.54
16,O=C(CN1C(=O)NC2(CCc3cc(Br)ccc32)C1=O)c1ccc(F)cc1F (stereo unspecified),5.71
17,CC1(c2cccc(Br)c2)NC(=O)N(CC(=O)c2ccc(F)cc2F)C1=O (stereo unspecified),5.72
18,CC1(c2ccc(C#N)cc2)NC(=O)N(CC(=O)C23CC4CC(CC(C4)C2)C3)C1=O (stereo unspecified),6.31
19,CC1(c2ccc(C#N)cc2)NC(=O)N(CC(=O)c2cccc(C(F)(F)F)c2)C1=O (stereo unspecified),5.3
20,COc1ccc(F)cc1C(=O)CN1C(=O)NC(C)(c2ccc(OC(F)F)cc2)C1=O (stereo unspecified),5.42
21,CCCC1(c2ccc(Br)cc2)NC(=O)N(CC(=O)c2ccc(F)cc2F)C1=O (stereo unspecified),6.64
22,CC(C)C1(c2ccc(Br)cc2)NC(=O)N(CC(=O)c2ccc(F)cc2F)C1=O (stereo unspecified),6.57
23,CC1(c2ccc(Br)cn2)NC(=O)N(CC(=O)c2ccc(F)cc2F)C1=O (stereo unspecified),4.87
24,CC1(c2ccc(C#N)cc2)NC(=O)N(Cc2ccc(F)cc2)C1=O (stereo unspecified),4.5

row,Compound,chromatographic logD
1,CC1(c2ccc(Br)cc2)CC(=O)N(CC(=O)c2ccc(F)cc2F)C1=O (stereo unspecified),6.86
2,COc1cccc(C(=O)CN2C(=O)NC(C)(c3ccc(C#N)cc3)C2=O)c1 (stereo unspecified),4.39
3,COc1cccc(C2(C)NC(=O)N(CC(=O)c3ccc(F)cc3F)C2=O)c1 (stereo unspecified),4.96
4,CC1(c2ccncc2)NC(=O)N(CC(=O)c2ccc(F)cc2F)C1=O (stereo unspecified),3.04
5,COc1ccc(C2(C)NC(=O)N(CC(=O)c3ccc(F)cc3F)C2=O)cc1F (stereo unspecified),4.84
6,CC1(c2ccc(C#N)cc2)NC(=O)N(CC(=O)c2nccs2)C1=O (stereo unspecified),3.42
7,CC1(c2ccc(OC(F)F)cc2)NC(=O)N(CC(=O)c2ccc(F)cc2F)C1=O (stereo unspecified),5.36
8,CN1C(=O)N(CC(=O)c2ccc(F)cc2F)C(=O)C1(C)c1ccc(C#N)cc1 (stereo unspecified),5.22
9,CC1(c2ccc(Cl)cc2)NC(=O)N(C(=O)c2ccc(F)cc2F)C1=O (stereo unspecified),3.72
10,CC1(c2ccc(C#N)cc2)NC(=O)N(CCC(=O)c2ccc(F)cc2)C1=O (stereo unspecified),4.4
11,C[C@@]1(c2ccc(C#N)cc2)NC(=O)N(CC(=O)c2ccc(F)cc2F)C1=O,4.51
12,N#Cc1ccc(-c2cn(CC(=O)c3ccc(F)cc3F)cn2)cc1,4.58
13,CC1(c2ccc(OC(F)F)cc2)NC(=O)N(CC(=O)N2CCCCC2)C1=O (stereo unspecified),4.03
14,COc1ccc(C(=O)CN2C(=O)NC(C)(c3ccc(OC(F)F)cc3)C2=O)cc1 (stereo unspecified),4.92
15,CC1(c2ccc(OC(F)F)cc2)NC(=O)N(CC(=O)c2ccccc2F)C1=O (stereo unspecified),5.23
16,CC1(c2ccc(-n3cnnn3)cc2)NC(=O)N(CC(=O)c2ccc(F)cc2F)C1=O (stereo unspecified),3.78
17,CC(=O)N1C(=O)N(CC(=O)c2ccc(F)cc2F)C(=O)C1(C)c1ccc(C#N)cc1 (stereo unspecified),5.77
18,CC1(c2ccc(C#N)cc2)NC(=O)N(CC(=O)c2cccc([N+](=O)[O-])c2)C1=O (stereo unspecified),4.25
19,CC1(c2cccc(NS(C)(=O)=O)c2)NC(=O)N(CC(=O)c2ccc(F)cc2F)C1=O (stereo unspecified),3.67
20,CC1(c2ccc(Cl)cc2)NC(=O)N(Cc2ccc(F)cc2)C1=O (stereo unspecified),5.59
21,N#Cc1ccc(-c2cnn(CC(=O)c3ccc(F)cc3F)c2)cc1,5.17
22,CC1(c2ccc(C#N)cn2)NC(=O)N(CC(=O)c2ccc(F)cc2F)C1=O (stereo unspecified),3.97
23,COc1ccc(C2(C)NC(=O)N(CC(=O)c3ccc(F)cc3F)C2=O)cc1 (stereo unspecified),4.78
24,CC1(c2ccc(N3CCOCC3)cc2)NC(=O)N(CC(=O)c2ccc(F)cc2F)C1=O (stereo unspecified),4.45

row,Compound,chromatographic logD
1,COc1ccc(C(=O)CN2C(=O)NC(C)(c3ccc(C#N)cc3)C2=O)cc1 (stereo unspecified),4.25
2,CC1(c2ccc(OC(F)F)cc2)NC(=O)N(CC(=O)c2ccc[nH]2)C1=O (stereo unspecified),3.91
3,CC1(c2ccc(C#N)cc2)NC(=O)N(CC(=O)c2ccc(F)cc2)C1=O (stereo unspecified),4.26
4,CC(=O)Nc1ccc(C2(C)NC(=O)N(CC(=O)c3ccc(F)cc3F)C2=O)cc1 (stereo unspecified),3.28
5,CC1(c2ccc(Br)cc2)NC(=O)N(CC(=O)c2ccc(F)cc2F)C1=O (stereo unspecified),5.68
6,CC1(c2ccc(Br)cc2)CCN(CC(=O)c2ccc(F)cc2F)C1=O (stereo unspecified),6.74
7,O=C(CN1C(=O)NC(c2ccc(Br)cc2)(C(F)(F)F)C1=O)c1ccc(F)cc1F (stereo unspecified),6.8
8,CC1(c2ccc(C#N)nc2)NC(=O)N(CC(=O)c2ccc(F)cc2F)C1=O (stereo unspecified),3.94
9,CC1(c2ccc(C#N)cc2)NC(=O)N(CC(F)(F)c2ccc(F)cc2F)C1=O (stereo unspecified),5.1
10,COc1cc(C2(C)NC(=O)N(CC(=O)c3ccc(F)cc3F)C2=O)ccc1OC(F)F (stereo unspecified),5.5
11,COc1ccc(C2(C)NC(=O)N(C(=O)c3ccc(F)cc3F)C2=O)cc1 (stereo unspecified),3.43
12,CCC1(c2ccc(Br)cc2)NC(=O)N(CC(=O)c2ccc(F)cc2F)C1=O (stereo unspecified),6.17
13,CC1(c2ccc(C#N)cc2)NC(=O)N(C2Cc3cc(F)cc(F)c3C2=O)C1=O (stereo unspecified),4.33
14,CC1(c2ccc(OC(F)F)cc2)NC(=O)N(CC(=O)c2ccc(F)cc2)C1=O (stereo unspecified),5.08
15,CC1(c2cccc(C#N)c2)NC(=O)N(CC(=O)c2ccc(F)cc2F)C1=O (stereo unspecified),4.51
16,Cc1ccc(C2(C)NC(=O)N(CC(=O)c3ccc(F)cc3F)C2=O)cc1 (stereo unspecified),5.41
17,C[C@]1(c2ccc(C#N)cc2)NC(=O)N(CC(=O)c2ccc(F)cc2F)C1=O,4.51
18,CC1(c2ccc(Cl)cc2)NC(=O)N(CCc2ccc(F)cc2)C1=O (stereo unspecified),5.68
19,CC1(c2ccc(OC(F)F)cc2)NC(=O)N(CC(=O)c2cccnc2)C1=O (stereo unspecified),3.54
20,CC1(c2ccc(C#N)cc2)NC(=O)N(CC(=NO)c2ccc(F)cc2F)C1=O (stereo in doubt; 43b),3.59
21,COc1ccc(C2(C)CN(CC(=O)c3ccc(F)cc3F)C(=O)N2)cc1 (stereo in doubt; 151a),4.72
